Results from article PMC4339887, “Selective Sirt2 inhibition by ligand-induced rearrangement of the active site” (Nature Communications, 2015).
“Also recorded” adds a separate entry of the source.

Key:
[1] = test system: α-tubulin acetylation in HeLa cells; test: tubulin acetylation, western blot; format: cell-based; details: various concentrations, 5 h
From the text: Cell samples were then separated using SDS–PAGE (12.5% (w/v) polyacrylamide), transferred to an activated nitrocellulose membrane (Bio-Rad), blocked with non-fat dry milk (Roth, 5% (w/v), TBS, 0.1% (v/v) Tween 20) and probed with an anti-acetyl-α-tubulin antibody (1:1,000, Sigma-Aldrich, T6793) and an anti-GAPDH antibody (1:2,000–1:5,000, Sigma-Aldrich, G9545) as a loading control (Fusion SL, peqlab). An uncropped blot is shown in Supplementary Fig. 8.

[2] = test system: p53-Lys382-acetylation in U2OS cells; test: p53 acetylation after ultraviolet exposure, western blot; format: cell-based; details: 1 h pretreatment, 20 J cm^-2 UV, further 6 h
Protocol: U2OS cells (ATCC accession no. HTB-96) were seeded and cultured until they reached 90% confluency. […] Cells were incubated for an additional 6 h in the presence of the inhibitor and then lysed in IPLS (50 mM Tris/HCl, 150 mM NaCl; 0.5 mM EDTA; 0.5% (v/v) NP-40; 1 × Complete Protease Inhibitors (Roche), pH 8.0) and resuspended in 1 × Laemmli Buffer. Samples were then separated on SDS–PAGE, transferred to a nitrocellulose membrane (Bio-Rad), blocked with non-fat dry milk (Roth, 5% (w/v), TBS, 0.1% (v/v) Tween 20) and probed with anti-acetyl-p53 K382 (Cell Signaling, #2522), anti-p53 DO.1 (Santa Cruz Biotechnology, sc-126) and anti-vinculin (Cell Signaling, #4650) as a loading control. Uncropped blots are shown in the Supplementary Fig. 10.

human Sirt6 = target: T1, human Sirt6 (Homo sapiens, UniProt Q8N6T7); test: HPLC-based assay, non-labelled myristoyl-lysine peptide; format: biochemical; details: myristoyl-lysine substrate
T1 construct: human Sirt6_13–308 (Uniprot: Q8N6T7); made in house
T1 sequence (Q8N6T7 13-308): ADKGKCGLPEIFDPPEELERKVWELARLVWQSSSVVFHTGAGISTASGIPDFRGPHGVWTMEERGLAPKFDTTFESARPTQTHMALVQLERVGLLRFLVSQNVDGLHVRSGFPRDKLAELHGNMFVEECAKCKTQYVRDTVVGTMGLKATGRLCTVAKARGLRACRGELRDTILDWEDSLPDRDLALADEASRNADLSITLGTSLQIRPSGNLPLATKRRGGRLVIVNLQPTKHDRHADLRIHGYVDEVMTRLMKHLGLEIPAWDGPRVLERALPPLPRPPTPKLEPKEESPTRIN

KDAC6 = target: T2, KDAC6 (Homo sapiens, UniProt Q9UBN7); test: in vitro KDAC1/6 assay, substrate ZMAL; format: biochemical
T2 construct: purchased Enzo Life Sciences
T2 sequence (Q9UBN7 1-1215): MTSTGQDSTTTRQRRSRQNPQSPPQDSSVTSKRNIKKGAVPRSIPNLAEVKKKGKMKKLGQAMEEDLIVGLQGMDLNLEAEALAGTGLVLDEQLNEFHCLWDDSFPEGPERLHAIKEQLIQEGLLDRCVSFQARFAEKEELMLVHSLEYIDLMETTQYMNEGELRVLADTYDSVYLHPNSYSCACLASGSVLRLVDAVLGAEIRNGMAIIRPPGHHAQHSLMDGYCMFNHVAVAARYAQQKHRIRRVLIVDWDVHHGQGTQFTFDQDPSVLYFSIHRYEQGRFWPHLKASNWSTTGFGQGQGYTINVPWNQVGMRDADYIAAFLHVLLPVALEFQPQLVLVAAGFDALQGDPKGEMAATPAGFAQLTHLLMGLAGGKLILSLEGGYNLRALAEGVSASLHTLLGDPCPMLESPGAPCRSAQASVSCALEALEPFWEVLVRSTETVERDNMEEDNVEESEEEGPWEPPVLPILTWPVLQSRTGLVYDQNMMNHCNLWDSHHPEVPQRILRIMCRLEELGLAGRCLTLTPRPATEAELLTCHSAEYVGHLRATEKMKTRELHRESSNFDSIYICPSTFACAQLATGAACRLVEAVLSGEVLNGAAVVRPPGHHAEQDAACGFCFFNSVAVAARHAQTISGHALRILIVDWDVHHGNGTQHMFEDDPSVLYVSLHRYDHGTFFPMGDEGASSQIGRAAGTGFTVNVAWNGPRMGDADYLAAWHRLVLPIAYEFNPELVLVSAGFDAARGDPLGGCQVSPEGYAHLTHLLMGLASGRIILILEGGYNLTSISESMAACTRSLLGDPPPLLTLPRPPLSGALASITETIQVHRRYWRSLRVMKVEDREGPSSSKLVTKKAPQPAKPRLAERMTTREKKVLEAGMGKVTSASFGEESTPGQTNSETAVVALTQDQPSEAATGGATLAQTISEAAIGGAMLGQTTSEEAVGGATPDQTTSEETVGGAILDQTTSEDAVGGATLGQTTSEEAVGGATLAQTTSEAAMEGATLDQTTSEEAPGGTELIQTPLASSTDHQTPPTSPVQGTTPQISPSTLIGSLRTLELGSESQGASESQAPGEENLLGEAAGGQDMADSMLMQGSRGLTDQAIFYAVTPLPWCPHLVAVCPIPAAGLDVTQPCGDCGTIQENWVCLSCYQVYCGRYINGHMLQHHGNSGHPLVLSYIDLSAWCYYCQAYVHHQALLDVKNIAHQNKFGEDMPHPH
Protocol: (§1) 5 times), Fmoc deprotection and amino acid coupling were repeated until the last amino acid was coupled and the Fmoc group was removed. The resin was washed with dichloromethane (DCM, 3 min, 5 times), methanol (5 min, 3 times) and DCM (3 min, 5 times). […]
(§2) acid (TFA) at RT (1 h, 2 times). Cleaved peptide was precipitated with cold diethylether, filtrated and dried. The peptide was purified by semi-preparative HPLC (Merck-Hitachi High Speed LC system) using a Merck Hibar LiChrosorb RP-8 column (250–25 mm, 7 μm). For separation a linear gradient from 20–50% (vol/vol) acetonitrile (ACN) with 0.1% (vol/vol) TFA in 60 min was applied (flow-rate: 8 ml min-1). […]
(§3) high-throughput fluorescence-based assay using the substrate ZMAL (Z-Lys(Acetyl)- […]
(§4) A solution that contained DMSO was used a negative
(§5) The reaction was started through the addition of KDAC1 (Enzo Life Sciences, 10 μL) or […]
(§6) initial state conditions the substrate conversion was adjusted to 10–30% prior to inhibition tests. The reaction was stopped by the addition of a solution containing trypsin and TSA […]
(§7) Then fluorescence intensity of the released fluorophore of the deacetylated lysine derivative was measured in a microplate […]
(§8) reader (BMG Polarstar, Oex 390 nm, Oem 460 nm). The amount of inhibition was determined with respect to the mixture with only DMSO.
(§9) Immunocytochemistry equipment and settings. […]

KDAC1 = target: T3, KDAC1 (Homo sapiens, UniProt Q13547); test: in vitro KDAC1/6 assay, substrate ZMAL; format: biochemical
T3 construct: purchased Enzo Life Sciences
T3 sequence (Q13547 whole entry): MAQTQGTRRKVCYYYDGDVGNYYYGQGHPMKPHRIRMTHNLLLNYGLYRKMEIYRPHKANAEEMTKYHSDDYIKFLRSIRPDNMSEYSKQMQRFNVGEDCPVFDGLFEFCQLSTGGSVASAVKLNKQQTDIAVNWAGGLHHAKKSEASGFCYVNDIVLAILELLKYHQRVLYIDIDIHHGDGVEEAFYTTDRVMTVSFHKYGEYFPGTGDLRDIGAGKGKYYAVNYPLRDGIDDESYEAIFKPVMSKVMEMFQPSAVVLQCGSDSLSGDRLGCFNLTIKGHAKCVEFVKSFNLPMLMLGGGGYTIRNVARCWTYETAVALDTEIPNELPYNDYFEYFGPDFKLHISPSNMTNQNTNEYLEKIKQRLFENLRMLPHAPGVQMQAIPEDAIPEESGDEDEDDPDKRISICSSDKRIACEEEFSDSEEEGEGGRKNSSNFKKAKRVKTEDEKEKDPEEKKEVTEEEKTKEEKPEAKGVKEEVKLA
Protocol: as §1, §2, §3, §4, §5, §6, §7, §8, §9

Cc1cc(C)nc(SCC(=O)Nc2ncc(Cc3cccc4ccccc34)s2)n1 [SirReal2]
level of α-tubulin acetylation [1]: tubulin hyperacetylation; also recorded: significant increase | acetylation of p53 (Lys382) after ultraviolet exposure [2]: does not affect; also recorded: did not observe an increase; also recorded: does not alter | inhibition at 200 µM (human Sirt6): 19% | activity of KDAC6 (KDAC6): does not affect; also recorded: not affected | activity of KDAC1 (KDAC1): does not affect
